Results taken from paper PMC6892914, “Interactions of Ionic Liquids and Spirocyclic Compounds with Liposome Model Membranes. A Steady-State Fluorescence Anisotropy Study” (Scientific Reports, 2019).

Columns and labels:
[1] = Steady-state fluorescence anisotropy of DPH-doped liposomes, POPC/POPS 80:20; assay type: physicochemical; details: compound 50 mM, 5 min incubation at RT
Excerpt: (§1) The technique used in the present study was steady-state fluorescence anisotropy spectroscopy (fluorescence anisotropy or anisotropy in the following text). The technique was utilised to detect organisational changes within the lipid bilayer using a fluorescent 1,6-diphenyl-1,3,5-hexatriene (DPH) probe. DPH is advantageous in the present application due to its high quantum yield and its ability to indicate subtle changes in the lipid acyl chain organisation. For general reviews on the technique, see Shinitzky & Barenholz[18] and Lentz[19]. The rod-like hydrophobic probe is rotating within the bilayer structure by Brownian motion and it is located between the hydrophobic acyl chains of the lipids. When the probe-containing liposomes are illuminated with UV-light at a fixed wavelength and a fixed level of polarized light, the probe is first excited and subsequently emits light that is partly depolarized, due to the molecular rotations of the probe. This depolarization can be measured as a numerical value of anisotropy (r), as shown by Eq. 1.1 r=I||−I⊥/IT where I|| and I⊥ are the intensities of emitted light parallel and perpendicular to the plane of excitation, respectively. IT is the total intensity of emitted light.
(§2) A reference anisotropy value for each pure liposome was determined daily. This was performed in order to normalise the liposome batch-to-batch and liposome-aging-dependent variation of the anisotropy values. The anisotropy was measured ten times and the mean ± standard deviation was calculated. Subsequently, the pure liposomes and the compounds under investigation were mixed and incubated at room temperature for 5 min, before measuring the anisotropy.
(§3) The lipids and the DPH probe were dissolved in chloroform as stock solutions and the stocks were mixed to give the target molar proportions for each liposome composition (Table 2). After mixing the chloroform lipid stocks, the lipid mixture was dried as a thin film on test tube walls by evaporating the chloroform using a flow of air, until no solvent was visible. The dried thin film of lipids was kept under vacuum for at least 12 h in a desiccator, in order to remove any traces of solvent. Ultra-pure water was added to reach the target lipid concentration of 4.0 mM. […] The aqueous mixture of DPH, lipids and water were incubated under agitation for 60 min at 65 °C and 75 °C to form the non-cholesterol-containing and cholesterol-containing multilamellar liposomes, respectively. Subsequently, the 4.0 mM liposome stock dispersions were extruded through 100 nm pore-size polycarbonate filters 19 times using an Avanti mini-extruder (Avanti Polar Lipids, Alabaster, AL, USA) in order to obtain unilamellar liposomes.
(§4) The fluorescence anisotropy values were measured using a Horiba Jobin Yvon (Northampton, UK) FluoroMax-4 spectrofluorometer, in L-format. The emission and the excitation […] were always set to the same value (8–10 nm) so that the photon counts/second at the detector were as recommended by the manufacturer (from 500 000 to 2 000 000 counts/second). The excitation and emission wavelengths were 360 nm and 450 nm, respectively. The measurements were performed at 21 ± 1 °C. Physiological temperature was not used, since the interactions between the living organism (Vibrio Fischeri) also takes place at a non-physiological temperature of 15 °C. The maximum 7 °C difference (15 °C vs. 22 °C) was considered acceptable. A reference value for the pure liposomes was measured daily. In order to study the interaction between the compounds and the liposomes, the pure liposomes were mixed with the compounds so that the final concentration of the lipids was 20 µM and that of the studied compounds was 50 mM. […] Both concentrations were selected by trial and error.

[2] = Steady-state fluorescence anisotropy of DPH-doped liposomes, POPC/Chol 75:25; assay type: physicochemical; details: compound 50 mM, 5 min incubation at RT
Excerpt: as §1, §2, §3, §4

[3] = Steady-state fluorescence anisotropy of DPH-doped liposomes, POPC; assay type: physicochemical; details: 5 min incubation at RT
Excerpt: as §1, §2, §3
as §4, with “daily.” for “daily. In order to study the interaction between the compounds and the liposomes, the pure liposomes were mixed with the compounds so that the final concentration of the lipids was 20 µM and that of the studied compounds was 50 mM.”

[4] = Steady-state fluorescence anisotropy of DPH-doped liposomes, POPC/POPS/Chol 55:20:25; assay type: physicochemical; details: compound 50 mM, 5 min incubation at RT
Excerpt: as §1, §2, §3, §4

[5] = Steady-state fluorescence anisotropy, stated over the liposome compositions; assay type: physicochemical; details: four liposome compositions; compound 50 mM
Excerpt: as §1
as §2, with “anisotropy. Similar to the reference measurements, the fluorescence anisotropy value after incubation with the ILs was recorded 10 times and the mean ± standard deviation was calculated.” for “anisotropy.”
In this equation r0 is the fundamental anisotropy in the absence of rotational diffusion of the probe, i.e. the maximum anisotropy value achievable using the specific excitation wavelength. At 360 nm r0 = 0.362 for DPH[26]. C(r) relates the molecular shape and the location of the transition dipoles of the rotating probe into one parameter. For spherical probes C(r) = k/v, where k is the Boltzmann constant and v is the effective volume of the probe. Therefore, C(r) would be constant for spherical molecules, but for other shapes, such as the rod-like DPH, the value is dependent on the experimental value of r. In contrast, as experimentally determined by Shinitzky and Barenholtz, the factor C(r)· T· τ = 240 mPa · s is relatively constant at 0–40 °C in membranes doped with DPH probe. T and τ are the temperature during the experiment and lifetime of the excited state, respectively. By substituting r0 = 0.362 and C(r)· T· τ = 240 mPa · s and by further rearranging of the Eqs. 2 and 3 is obtained.3 η=240mPas⋅r/0.362−r
The equation gives the approximate apparent microviscosity (±15%) based on the recorded anisotropy values. The benefit of determining this is the hyperbolic growth of the apparent microviscosity relatively to anisotropy. […]
In order to compare the anisotropy values with the toxicity values in greater detail, the relative change in anisotropy Δr (%) was calculated as given by Eq. 44 Δr=rliposome+toxicant−rpureliposome/rpureliposome where rpure liposome is the daily anisotropy value measured for each pure liposome and r liposome+toxicant the anisotropy value measured after mixing the pure liposome with the compound of interest. […]

[6] = Steady-state fluorescence anisotropy of DPH-doped liposomes, POPC/POPS/Chol 55:20:25; assay type: physicochemical; details: compound 0.2 mM, 5 min incubation at RT
[7] = Steady-state fluorescence anisotropy of DPH-doped liposomes, POPC/Chol 75:25; assay type: physicochemical; details: compound 0.2 mM, 5 min incubation at RT
[8] = Steady-state fluorescence anisotropy of DPH-doped liposomes, POPC/POPS 80:20; assay type: physicochemical; details: compound 0.2 mM, 5 min incubation at RT
[9] = 333 mM; cited from earlier work

Compound: 5-Methyl-1,5,7-triazabicyclo[4.3.0]non-6-enium & 7-Methyl-1,5,7-triazabicyclo[4.3.0]non-5-enium mesylate [[MTBNH][OMs]]
- Relative change in anisotropy, Δr [1]: -26%
- Relative change in anisotropy, Δr [2]: -27%
- Relative change in anisotropy, Δr ([3]; compound 50 mM): -20%
- Relative change in anisotropy, Δr [4]: -36%

Compound: CC(=O)[O-].[Na+] [NaOAc, Sodium acetate, reference compound]
- Relative change in anisotropy, Δr [1]: 13%
- Relative change in anisotropy, Δr [2]: 12%
- Relative change in anisotropy, Δr ([3]; compound 50 mM): 11%
- Relative change in anisotropy, Δr [4]: 12%
- Δr, range depending on the liposome composition [5]: 11–13%

Compound: CS(=O)(=O)[O-].[Na+] [NaOMs, Sodium mesylate, reference compound]
- Relative change in anisotropy, Δr [1]: 11%
- Relative change in anisotropy, Δr [2]: 6%
- Relative change in anisotropy, Δr ([3]; compound 50 mM): 17%
- Relative change in anisotropy, Δr [4]: 13%
- Δr, range depending on the liposome composition [5]: 6–17%

Compound: C1CC[N+]2(CC1)CCCC2.CC(=O)[O-] [[4.5][OAc], 5-Azoniaspiro[4.5]decane acetate]
- Relative change in anisotropy, Δr [1]: -5%
- Relative change in anisotropy, Δr [2]: -1%
- Relative change in anisotropy, Δr ([3]; compound 50 mM): 6%
- Relative change in anisotropy, Δr [4]: -6%
- Δr, range depending on the liposome composition [5]: −6% to +6

Compound: C1CC[N+]2(CC1)CCCCC2.CC(=O)[O-] [[5.5][OAc], 6-Azoniaspiro[5.5]undecane acetate]
- Relative change in anisotropy, Δr [1]: -18%
- Relative change in anisotropy, Δr [2]: -18%
- Relative change in anisotropy, Δr ([3]; compound 50 mM): -16%
- Relative change in anisotropy, Δr [4]: -25%

Compound: C1CCC[N+]2(CC1)CCCCC2.CC(=O)[O-] [[5.6][OAc], 6-Azoniaspiro[5.6]dodecane acetate]
- Relative change in anisotropy, Δr [1]: -22%
- Relative change in anisotropy, Δr [2]: -21%
- Relative change in anisotropy, Δr ([3]; compound 50 mM): -19%
- Relative change in anisotropy, Δr [4]: -27%

Compound: C1CCC2=NCCCN2CC1.CS(=O)(=O)O [[DBUH][OMs], 1,8-Diazabicyclo[5.4.0]undec-7-enium mesylate]
- Relative change in anisotropy, Δr [1]: -33%
- Relative change in anisotropy, Δr [2]: -31%
- Relative change in anisotropy, Δr ([3]; compound 50 mM): -24%
- Relative change in anisotropy, Δr [4]: -39%

Compound: CC(=O)[O-].CCCCCCCC[P+](C)(CCCCCCCC)CCCCCCCC [[P8881][OAc], Methyltrioctylphosphonium acetate]
- Relative change in anisotropy, Δr [6]: -47%
- Relative change in anisotropy, Δr [7]: -41%
- Relative change in anisotropy, Δr ([3]; compound 0.2 mM): -19%
- Relative change in anisotropy, Δr [8]: -36%

Compound: CCN(CC)CC.CS(=O)(=O)O [[TEAH][OMs], Triethylammonium mesylate]
- Relative change in anisotropy, Δr [1]: -5%
- Relative change in anisotropy, Δr [2]: 2%
- Relative change in anisotropy, Δr ([3]; compound 50 mM): 7%
- Relative change in anisotropy, Δr [4]: -4%
- Δr, range depending on the liposome composition [5]: −5% to +7

Compound: CN(C)C(=N)N(C)C.CS(=O)(=O)O [[TMGH][OMs], 1,1,3,3-Tetramethylguanidinium mesylate]
- Relative change in anisotropy, Δr [1]: 6%
- Relative change in anisotropy, Δr [2]: 3%
- Relative change in anisotropy, Δr ([3]; compound 50 mM): 11%
- Relative change in anisotropy, Δr [4]: 5%
- Δr, range depending on the liposome composition [5]: 3–11%

Compound: CCO [ethanol]
- changes in fluorescence polarisation [9]: < 10%
